Target: T1, ΔF508-CFTR (Homo sapiens, UniProt P13569, DEL508-508)
T1 construct: expressed in transfected cells
Assay: Membrane potential optical (FRET/VIPR) assay, identification of correction compounds
Assay type: cell-based
Conditions: Table 3, assay not given; for Emax: read-out: % Activity / % Efficacy (relative efficacy)
Description: I) Membrane Potential Optical Methods for Assaying ΔF508-CFTR Modulation Properties of Compounds
These voltage sensitive assays are based on the change in fluorescence resonant energy transfer (FRET) between the membrane-soluble, voltage-sensitive dye, DiSBAC2(3), and a fluorescent phospholipid, CC2-DMPE, which is attached to the outer leaflet of the plasma membrane and acts as a FRET donor. Changes in membrane potential (Vm) cause the negatively charged DiSBAC2(3) to redistribute across the plasma membrane and the amount of energy transfer from CC2-DMPE changes accordingly. The changes in fluorescence emission were monitored using VIPR™ II, which is an integrated liquid handler and fluorescent detector designed to conduct cell-based screens in 96- or 384-well microtiter plates.
Identification of Correction Compounds
To identify small molecules that correct the trafficking defect associated with ΔF508-CFTR; a single-addition HTS assay format was developed. The cells were incubated in serum-free medium for 16 hrs at 37° C. in the presence or absence (negative control) of test compound. As a positive control, cells plated in 384-well plates were incubated for 16 hrs at 27° C. to “temperature-correct” ΔF508-CFTR. The cells were subsequently rinsed 3× with Krebs Ringers solution and loaded with the voltage-sensitive dyes. To activate ΔF508-CFTR, 10 μM forskolin and the CFTR potentiator, genistein (20 μM), were added along with Cl^− free medium to each well. The addition of Cl^− free medium promoted Cl^− efflux in response to ΔF508-CFTR activation and the resulting membrane depolarization was optically monitored using the FRET-based voltage-sensor dyes.
• Bath Solution #1: (in mM) NaCl 160, KCl 4.5, CaCl2 2, MgCl2 1, HEPES 10, pH 7.4 with NaOH. • Chloride-free bath solution: Chloride salts in Bath Solution #1 are substituted with gluconate salts. • CC2-DMPE: Prepared as a 10 mM stock solution in DMSO and stored at −20° C. • DiSBAC2(3): Prepared as a 10 mM stock in DMSO and stored at −20° C.
NIH3T3 mouse fibroblasts stably expressing ΔF508-CFTR are used for optical measurements of membrane potential. The cells are maintained at 37° C. in 5% CO2 and 90% humidity in Dulbecco's modified Eagle's medium supplemented with 2 mM glutamine, 10% fetal bovine serum, 1×NEAA, β-ME, 1×pen/strep, and 25 mM HEPES in 175 cm^2 culture flasks. For all optical assays, the cells were seeded at 30,000/well in 384-well matrigel-coated plates and cultured for 2 hrs at 37° C. before culturing at 27° C. for 24 hrs. for the potentiator assay.

T1 sequence (P13569 with tags, fused parts or gaps DEL508-508): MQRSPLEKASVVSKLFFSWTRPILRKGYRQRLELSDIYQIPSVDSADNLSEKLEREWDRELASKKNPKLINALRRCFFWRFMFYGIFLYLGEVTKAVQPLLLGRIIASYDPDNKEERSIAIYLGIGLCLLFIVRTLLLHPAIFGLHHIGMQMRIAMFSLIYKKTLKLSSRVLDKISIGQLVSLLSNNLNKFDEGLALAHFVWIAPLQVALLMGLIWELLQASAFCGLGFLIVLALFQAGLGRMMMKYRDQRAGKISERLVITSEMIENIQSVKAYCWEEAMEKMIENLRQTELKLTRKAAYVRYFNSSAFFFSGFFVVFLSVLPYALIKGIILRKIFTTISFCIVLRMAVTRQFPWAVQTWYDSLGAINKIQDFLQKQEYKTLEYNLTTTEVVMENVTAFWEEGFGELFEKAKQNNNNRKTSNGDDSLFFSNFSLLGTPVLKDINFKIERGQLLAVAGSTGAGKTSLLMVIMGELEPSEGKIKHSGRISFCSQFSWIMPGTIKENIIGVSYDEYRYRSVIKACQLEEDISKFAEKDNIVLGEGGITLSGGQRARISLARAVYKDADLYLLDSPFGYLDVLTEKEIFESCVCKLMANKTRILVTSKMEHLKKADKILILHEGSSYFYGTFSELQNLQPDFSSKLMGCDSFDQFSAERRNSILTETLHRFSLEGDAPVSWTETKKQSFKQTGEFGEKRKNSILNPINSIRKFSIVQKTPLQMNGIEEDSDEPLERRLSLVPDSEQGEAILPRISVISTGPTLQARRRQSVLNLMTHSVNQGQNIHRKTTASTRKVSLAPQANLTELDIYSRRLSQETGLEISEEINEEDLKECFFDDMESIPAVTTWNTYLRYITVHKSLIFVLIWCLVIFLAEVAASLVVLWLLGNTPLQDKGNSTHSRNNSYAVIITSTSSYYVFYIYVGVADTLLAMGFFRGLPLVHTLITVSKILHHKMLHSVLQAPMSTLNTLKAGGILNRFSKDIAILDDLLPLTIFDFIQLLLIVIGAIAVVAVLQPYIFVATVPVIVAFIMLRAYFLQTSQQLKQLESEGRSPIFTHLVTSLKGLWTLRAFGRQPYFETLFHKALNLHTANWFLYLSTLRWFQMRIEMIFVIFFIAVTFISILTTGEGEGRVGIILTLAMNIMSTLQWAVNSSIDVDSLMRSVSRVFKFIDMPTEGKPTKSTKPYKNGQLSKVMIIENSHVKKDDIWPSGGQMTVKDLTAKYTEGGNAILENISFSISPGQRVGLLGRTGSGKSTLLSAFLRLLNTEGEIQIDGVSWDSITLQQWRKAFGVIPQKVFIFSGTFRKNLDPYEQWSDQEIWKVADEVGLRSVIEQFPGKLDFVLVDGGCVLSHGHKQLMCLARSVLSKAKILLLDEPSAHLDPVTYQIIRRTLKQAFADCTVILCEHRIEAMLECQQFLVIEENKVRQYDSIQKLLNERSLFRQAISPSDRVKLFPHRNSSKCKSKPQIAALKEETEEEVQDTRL

Cc1cccc(C2(C(=O)Nc3ncc(C(c4ccccc4Cl)N4CC[C@@H](O)C4)s3)CC2)c1 (some centres unmarked) [Example 450]
EC50: < 10 µM | Emax: > 100%

COc1ccccc1C1(C(=O)Nc2ncc(Cc3ccccc3C#N)s2)CC1 [Example 68]
EC50: < 10 µM | Emax: 25 to 100%

COc1cccc(C(c2cnc(NC(=O)C3(c4ccc5c(c4)OCO5)CC3)s2)N(C)C)c1 (centres unmarked) [Example 366]
EC50: 10 to 25 µM | Emax: > 100%

COCC1CCCN1C(c1ccccc1)c1cnc(NC(=O)C2(c3ccc4c(c3)OCO4)CC2)s1 (centres unmarked) [Example 355]
EC50: < 10 µM | Emax: > 100%

O=C(Nc1ncc(C(NC(CO)CO)c2ccccc2Cl)s1)C1(c2ccc3c(c2)OCO3)CC1 (centres unmarked) [Example 433]
EC50: < 10 µM | Emax: > 100%

O=C(Nc1nc(-c2ccccc2)cs1)C1(c2ccc3c(c2)OCO3)CC1 [Example 80]
% Activity / % Efficacy (relative efficacy): +++ (“+++” means>100%) | EC50: < 10 µM

COc1ccc(C2(C(=O)Nc3ncc(S(=O)(=O)c4ccccc4OC)s3)CC2)cc1 [Example 88]
% Activity / % Efficacy (relative efficacy): +++ (“+++” means>100%) | EC50: < 10 µM

COc1cccc(C(c2csc(NC(=O)C3(c4ccc5c(c4)OCO5)CC3)n2)N2CCC(O)CC2)c1 (centres unmarked) [Example 360]
EC50: 10 to 25 µM | Emax: > 100%

Cc1cc(NC(=O)C2(c3ccc4c(c3)OCO4)CC2)n(Cc2ccccc2)n1 [Example 297]
EC50: 10 to 25 µM | Emax: 25 to 100%

COc1ccc(C2(C(=O)Nc3ncc(Cc4cccc(Cl)c4)o3)CC2)cc1 [Example 153]
% Activity / % Efficacy (relative efficacy): ++ (“++” means between 25% to 100%) | EC50: < 10 µM

COc1ccc(C2(C(=O)Nc3ncc([S+]([O-])c4ccccc4OC)s3)CC2)cc1 (centres unmarked) [Example 87]
% Activity / % Efficacy (relative efficacy): +++ (“+++” means>100%) | EC50: < 10 µM

CN(C)C(c1ccc(S(C)(=O)=O)cc1)c1cnc(NC(=O)C2(c3ccc4c(c3)OCO4)CC2)s1 (centres unmarked) [Example 381]
EC50: 10 to 25 µM | Emax: 25 to 100%

CCN(CC)CCn1cc(Cc2ccccc2Cl)s/c1=N/C(=O)C1(c2ccc(OC)cc2)CC1 [Example 74]
% Activity / % Efficacy (relative efficacy): ++ (“++” means between 25% to 100%) | EC50: 25 to 60 µM

COc1ccc(C(c2cnc(NC(=O)C3(c4ccc5c(c4)OCO5)CC3)s2)N2CCCCC2)cc1 (centres unmarked) [Example 361]
EC50: < 10 µM | Emax: > 100%

COc1ccc(C2(C(=O)Nc3ncc(Cc4ccc(F)cc4C)s3)CC2)cc1 [Example 282]
% Activity / % Efficacy (relative efficacy): ++ (“++” means between 25% to 100%) | EC50: < 10 µM

COc1ccc(C2(C(=O)Nc3ncc(Cc4cnccc4OC)s3)CC2)cc1 [Example 242]
% Activity / % Efficacy (relative efficacy): +++ (“+++” means>100%) | EC50: < 10 µM

O=C(Nc1ncc(C(c2ccccc2Cl)N2CC[C@H](O)C2)s1)C1(c2ccc3c(c2)OCO3)CC1 (some centres unmarked) [Example 310]
EC50: < 10 µM | Emax: > 100%

COc1ccc(C2(C(=O)Nc3nc4ccc(Cl)cc4s3)CC2)cc1 [Example 47]
EC50: < 10 µM | Emax: 25 to 100%

O=C(Nc1ncc(C(NCCO)c2ccccc2Cl)s1)C1(c2ccc3c(c2)OCO3)CC1 (centres unmarked) [Example 416]
EC50: < 10 µM | Emax: > 100%

CCN(CC)C(c1cnc(NC(=O)C2(c3ccc4c(c3)OCO4)CC2)s1)C(C)(C)C (centres unmarked) [Example 393]
EC50: 10 to 25 µM | Emax: > 100%

CCN(CC)C(c1ccccc1)c1cnc(NC(=O)C2(c3ccc4c(c3)OCO4)CC2)s1 (centres unmarked) [Example 372]
EC50: < 10 µM | Emax: > 100%

COc1ccccc1Cc1cnc(NC(=O)C2(c3ccc(OC)c(OC)c3)CC2)s1 [Example 58]
% Activity / % Efficacy (relative efficacy): +++ (“+++” means>100%) | EC50: < 10 µM

COc1ccccc1Cc1cnc(NC(=O)C2(c3ccc(F)c(F)c3)CC2)s1 [Example 198]
% Activity / % Efficacy (relative efficacy): +++ (“+++” means>100%) | EC50: < 10 µM

C=CCN(C)C(c1cnc(NC(=O)C2(c3ccc4c(c3)OCO4)CC2)s1)c1ccccc1Cl (centres unmarked) [Example 218]
% Activity / % Efficacy (relative efficacy): +++ (“+++” means>100%) | EC50: < 10 µM

CC(C)[C@@H](CO)NC(c1cnc(NC(=O)C2(c3ccc4c(c3)OCO4)CC2)s1)c1ccccc1Cl (some centres unmarked) [Example 246]
EC50: < 10 µM | Emax: > 100%

CCCc1nc(NC(=O)C2(c3ccc(OC)cc3)CC2)sc1C(=O)OCC [Example 184]
% Activity / % Efficacy (relative efficacy): +++ (“+++” means>100%) | EC50: < 10 µM

NC(=O)C1(C(=O)Nc2ncc(Cc3ccccc3Cl)s2)CC1 [Example 91]
% Activity / % Efficacy (relative efficacy): ++ (“++” means between 25% to 100%) | EC50: 10 to 25 µM

CC1(C)CC(NC(c2cnc(NC(=O)C3(c4ccc5c(c4)OCO5)CC3)s2)c2ccccc2Cl)CCO1 (centres unmarked) [Example 429]
EC50: < 10 µM | Emax: > 100%

CCOc1ccccc1C(c1cnc(NC(=O)C2(c3ccc4c(c3)OCO4)CC2)s1)N1CCCC1 (centres unmarked) [Example 463]
EC50: < 10 µM | Emax: 25 to 100%

O=C1CCCc2nc(NC(=O)C3(c4ccc5c(c4)OCO5)CC3)sc21 [Example 190]
% Activity / % Efficacy (relative efficacy): + (“+” means<25%) | EC50: 10 to 25 µM

CCCc1nc(NC(=O)C2(c3ccc4c(c3)OCO4)CC2)sc1C(=O)NCC [Example 192]
% Activity / % Efficacy (relative efficacy): +++ (“+++” means>100%) | EC50: < 10 µM

O=C(Nc1ncc(C(c2ccccc2Cl)N2CC[C@@H](O)C2)s1)C1(c2ccc3c(c2)OC(F)(F)O3)CC1 (some centres unmarked) [Example 492]
EC50: < 10 µM | Emax: > 100%

O=C(Nc1ncc(-c2ccccc2)s1)C1(c2ccc3c(c2)OCO3)CC1 [Example 86]
% Activity / % Efficacy (relative efficacy): +++ (“+++” means>100%) | EC50: < 10 µM

Cc1ccccc1C(c1cnc(NC(=O)C2(c3ccc4c(c3)OCO4)CC2)s1)N1CCCC1 (centres unmarked) [Example 469]
EC50: < 10 µM | Emax: > 100%

O=C(Nc1ncc(C(c2ccccc2Cl)n2ccnc2)s1)C1(c2ccc3c(c2)OCO3)CC1 (centres unmarked) [Example 241]
% Activity / % Efficacy (relative efficacy): ++ (“++” means between 25% to 100%) | EC50: < 10 µM

CC(C)[C@H](CO)NC(c1cnc(NC(=O)C2(c3ccc4c(c3)OCO4)CC2)s1)c1ccccc1C(F)(F)F (some centres unmarked) [Example 481]
EC50: < 10 µM | Emax: > 100%

CN(C)C(c1cnc(NC(=O)C2(c3ccc4c(c3)OCO4)CC2)s1)C(C)(C)C (centres unmarked) [Example 395]
EC50: 10 to 25 µM | Emax: > 100%

N#Cc1ccccc1Cc1cnc(NC(=O)C2(c3ccc4c(c3)OCO4)CC2)s1 [Example 62]
% Activity / % Efficacy (relative efficacy): ++ (“++” means between 25% to 100%) | EC50: 10 to 25 µM

COc1ccc(C2(C(=O)Nc3ncc(Cc4ccccc4Cl)n3C)CC2)cc1 [Example 63]
% Activity / % Efficacy (relative efficacy): +++ (“+++” means>100%) | EC50: < 10 µM

COc1ccc(C(c2cnc(NC(=O)C3(c4ccc5c(c4)OCO5)CC3)s2)N2CCCC2)cc1 (centres unmarked) [Example 362]
EC50: 10 to 25 µM | Emax: > 100%

CCNC(c1cnc(NC(=O)C2(c3ccc4c(c3)OCO4)CC2)s1)c1ccccc1Cl (centres unmarked) [Example 432]
EC50: < 10 µM | Emax: > 100%

CCN(CC)C(c1cccc(OC)c1)c1cnc(NC(=O)C2(c3ccc4c(c3)OCO4)CC2)s1 (centres unmarked) [Example 357]
EC50: < 10 µM | Emax: > 100%

CS(=O)(=O)c1ccc(-c2csc(NC(=O)C3(c4ccc5c(c4)OCO5)CC3)n2)cc1 [Example 119]
% Activity / % Efficacy (relative efficacy): ++ (“++” means between 25% to 100%) | EC50: < 10 µM

Source: patent US7977322B2 (Vertex Pharmaceuticals Incorporated, priority 2004, dated 2011)
